Assay results as given in US20150329498A1, “IRAK INHIBITORS AND USES THEREOF” (Nimbus Iris, Inc., priority 2014, published 2015).

These molecules were tested against T1, IRAK4 (Homo sapiens, UniProt Q9NWZ3) (assay: IRAK-4 activity inhibition assay (Caliper)). Settings: 3.5 nM IRAK4, 1.5 μM Peptide 8, 37 μM ATP.
T1 construct: purchased CARNA Bioscience 09-145
T1 sequence (Q9NWZ3 1-460): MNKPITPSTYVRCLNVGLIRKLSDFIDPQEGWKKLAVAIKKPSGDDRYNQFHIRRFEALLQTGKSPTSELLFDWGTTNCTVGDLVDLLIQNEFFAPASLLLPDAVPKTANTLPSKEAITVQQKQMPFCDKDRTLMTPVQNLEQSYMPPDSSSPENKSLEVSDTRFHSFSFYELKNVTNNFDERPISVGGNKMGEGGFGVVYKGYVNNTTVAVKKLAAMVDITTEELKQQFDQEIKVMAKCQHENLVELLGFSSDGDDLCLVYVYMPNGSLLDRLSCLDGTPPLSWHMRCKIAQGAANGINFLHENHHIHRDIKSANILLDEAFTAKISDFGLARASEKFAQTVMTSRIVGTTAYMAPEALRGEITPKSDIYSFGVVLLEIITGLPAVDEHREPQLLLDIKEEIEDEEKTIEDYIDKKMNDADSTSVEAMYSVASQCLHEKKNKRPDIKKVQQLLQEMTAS
Assay type: biochemical
Procedure: A 1x kinase base buffer was prepared from 50 mM HEPES, pH 7.5 and 0.0015% Brij-35. A stop buffer was prepared from 100 mM HEPES, pH 7.5, 0.015% Brij-35, 0.2% Coating Reagent #3, and 50 mM EDTA.
Test compound was diluted to 50× of the final desired highest inhibitor concentration in reaction by 100% DMSO. 100 ul of this compound dilution was transferred to a well in a 96-well plate. For example, if desired highest inhibitor concentration in IC50 determination is 100 uM, then prepare 5000 uM of compound DMSO solution in this step.
Test compound was serially diluted by transferring 30 μl to 60 μl of 100% DMSO in the next well and so forth for a total of 10 concentrations. 100 μl of 100% DMSO was added to two empty wells for no compound control and no enzyme control in the same 96-well plate.
A new 96-well plate was marked as intermediate plate. 5 μl of compound serial dilution was transferred from source plate to the corresponding wells of the intermediate plate. 45 μl of 1x kinase base buffer (KB buffer) was added to each well of the intermediate plate. The intermediate plate was placed for 10 min on a shaker.
5 μl of each well was transferred from the 96-well intermediate plate to a 384-well plate in duplicates. For example, A1 of the 96-well plate is transferred to A1 and A2 of the 384-well plate. A2 of the 96-well plate is transferred to A3 and A4 of the 384-well plate, and so on.
IRAK4 and DTT in 1x kinase base buffer was added. The 2.5x enzyme mix contained 8.8 nM IRAK4 and 5 mM DTT.
Peptide 8, ATP, MgCl2 and MnCl2 were added in the 1x kinase base buffer. The 2.5x peptide mix contained 3.75 μM peptide 8, 92.5 μM ATP, 12.5 mM MgCl2 and 2.5 mM MnCl2.
Assay plate already contained 5 μl of compound in 10% DMSO. Added 10 μl of 2.5x enzyme solution to each well of the 384-well assay plate, except no enzyme control wells. The final concentration of IRAK4 in reaction was 3.5 nM. Added 10 μl of 1x kinase base buffer to no enzyme control wells in the assay plate. Incubated at room temperature for 10 min.
Added 10 μl of 2.5x peptide solution to each well of the 384-well assay plate. The final concentration of Peptide 8 and ATP was 1.5 μM and 37 μM, respectively. Incubated at for 40 minutes. Added 25 μl of stop buffer to stop reaction. Collected data on Caliper.
Copied conversion % data from Caliper program. Converted conversion % values to percent inhibition values. Percent inhibition=(max−conversion %)/(max−min)*100, where “max” means the conversion % of DMSO control and “min” means the conversion % of no enzyme control.
The compound numbers correspond to the compound numbers in Table 1. Compounds having an activity designated as “A” provided an IC50≦5 μM; compounds having an activity designated as “B” provided an IC50 of 5-20 μM; compounds having an activity designated as “C” provided an IC50 of 20-50 μM; and compounds having an activity designated as “D” provided an IC50≧50 μM. “NA” stands for “not assayed.”

IC50, ≤ 5 µM:
c1ccc2c(N[C@H]3CC[C@H](N4CCOCC4)CC3)ncnc2c1 [Compound I-1, N-((1r,4r)-4-morpholinocyclohexyl)quinazolin-4-amine]
Brc1ccc2ncnc(O[C@H]3CC[C@H](N4CCOCC4)CC3)c2c1 [Compound I-4, 4-((1r,4r)-4-((6-bromoquinazolin-4-yl)oxy)cyclohexyl)morpholine]
FC(F)(F)c1ccc2ncnc(O[C@H]3CC[C@H](N4CCOCC4)CC3)c2c1 [Compound I-6, 4-((1r,4r)-4-((6-(trifluoromethyl)quinazolin-4-yl)oxy)cyclohexyl)-morpholine]
N#Cc1ccc2ncnc(O[C@H]3CC[C@H](N4CCOCC4)CC3)c2c1 [Compound I-8, 4-(((1r,4r)-4-morpholinocyclohexyl)oxy)quinazoline-6-carbonitrile]
NC(=O)c1ccc2ncnc(O[C@H]3CC[C@H](N4CCOCC4)CC3)c2c1 [Compound I-9, 4-(((1r,4r)-4-morpholinocyclohexyl)oxy)quinazoline-6-carboxamide]
FC(F)(F)c1ccc2ncnc(N[C@H]3CC[C@H](N4CCOCC4)CC3)c2c1 [Compound I-12, N-((1r,4r)-4-morpholinocyclohexyl)-6-(trifluoromethyl)-quinazolin-4-amine]
CN(CC(=O)N1CCCC1)[C@H]1CC[C@H](Nc2ncnc3ccc(C#N)cc23)CC1 [Compound I-13, 4-(((1r,4r)-4-(methyl(2-oxo-2-(pyrrolidin-1-yl)ethyl)amino)-cyclohexyl)amino)quinazoline-6-carbonitrile]
OCC(O)c1ccc2ncnc(O[C@H]3CC[C@H](N4CCOCC4)CC3)c2c1 (some centres unmarked) [Compound I-17, 1-(4-(((1r,4r)-4-morpholinocyclohexyl)oxy)quinazolin-6-yl)ethane-1,2-diol]
CCc1ccc2ncnc(O[C@H]3CC[C@H](N4CCOCC4)CC3)c2c1 [Compound I-18, 4-((1r,4r)-4-((6-ethylquinazolin-4-yl)oxy)cyclohexyl) morpholine]
OCc1ccc2ncnc(O[C@H]3CC[C@H](N4CCOCC4)CC3)c2c1 [Compound I-19, (4-(((1r,4r)-4-morpholinocyclohexyl)oxy)quinazolin-6-yl)methanol]
OCC(O)c1ccc2ncnc(N[C@H]3CC[C@H](N4CCOCC4)CC3)c2c1 (some centres unmarked) [Compound I-21, 1-(4-(((1r,4r)-4-morpholinocyclohexyl)amino)quinazolin-6-yl)-ethane-1,2-diol]
OCc1ccc2ncnc(N[C@H]3CC[C@H](N4CCOCC4)CC3)c2c1 [Compound I-23, (4-(((1r,4r)-4-morpholinocyclohexyl)amino)quinazolin-6-yl)methanol]
COCc1ccc2ncnc(N[C@H]3CC[C@H](N4CCOCC4)CC3)c2c1 [Compound I-32, 6-(methoxymethyl)-N-((1r,4r)-4-morpholinocyclohexyl)quina-zolin-4-amine]
COCCc1ccc2ncnc(N[C@H]3CC[C@H](N4CCOCC4)CC3)c2c1 [Compound I-33, 6-(2-methoxyethyl)-N-((1r,4r)-4-morpholinocyclohexyl)-quinazolin-4-amine]
CC1(C)CCN([C@H]2CC[C@H](Nc3ncnc4ccc(C#N)cc34)CC2)CC1 [Compound I-37, 4-(((1r,4r)-4-(4,4-dimethylpiperidin-1-yl)cyclohexyl)amino)-quinazoline-6-carbonitrile]
OC/C=C\c1ccc2ncnc(N[C@H]3CC[C@H](N4CCOCC4)CC3)c2c1 [Compound I-42, (Z)-3-(4-(((1r,4r)-4-morpholinocyclohexyl)amino)quinazolin-6-yl)prop-2-en-1-ol]
C=Cc1ccc2ncnc(N[C@H]3CC[C@H](N4CCC(C)(C)CC4)CC3)c2c1 [Compound I-43, N-((1r,4r)-4-(4,4-dimethylpiperidin-1-yl)cyclohexyl)-6-vinyl-quinazolin-4-amine]
CCc1ccc2ncnc(N[C@H]3CC[C@H](N4CCC(C)(C)CC4)CC3)c2c1 [Compound I-45, N-((1r,4r)-4-(4,4-dimethylpiperidin-1-yl)cyclohexyl)-6-ethylquina-zolin-4-amine]
N#Cc1ccc2nccc(N[C@H]3CC[C@H](N4CCC5(CC4)CC5)CC3)c2c1 [Compound I-48, 4-(((1r,4r)-4-(6-azaspiro[2.5]octan-6-yl)cyclohexyl)-amino)quinoline-6-carbonitrile]
C=Cc1ccc2nccc(N[C@H]3CC[C@H](N4CCC5(CC4)CC5)CC3)c2c1 [Compound I-49, N-((1r,4r)-4-(6-azaspiro[2.5]octan-6-yl)cyclohexyl)-6-vinylquino-lin-4-amine]
NC(=O)CCc1ccc2ncnc(N[C@H]3CC[C@H](N4CCOCC4)CC3)c2c1 [Compound I-50, 3-(4-(((1r,4r)-4-morpholinocyclohexyl)amino)quinazolin-6-yl)propanamide]
N#CCCc1ccc2ncnc(N[C@H]3CC[C@H](N4CCOCC4)CC3)c2c1 [Compound I-51, 3-(4-(((1r,4r)-4-morpholinocyclohexyl)amino)quinazolin-6-yl)propanenitrile]
O=C(O)/C=C/c1ccc2ncnc(N[C@H]3CC[C@H](N4CCOCC4)CC3)c2c1 [Compound I-55, (E)-3-(4-(((1 r,4r)-4-morpholinocyclohexyl)amino)quinazolin-6-yl)acrylic acid]
CC(C)(O)/C=C/c1ccc2ncnc(N[C@H]3CC[C@H](N4CCOCC4)CC3)c2c1 [Compound I-57, (E)-2-methyl-4-(4-(((1r,4r)-4-morpholinocyclohexyl)amino)quina-zolin-6-yl)but-3-en-2-ol]
Cn1cc(-c2ccc3ncnc(N[C@H]4CC[C@H](N5CCOCC5)CC4)c3c2)cn1 [Compound I-60, 6-(1-methyl-1H-pyrazol-4-yl)-N-((1r,4r)-4-morpholinocyclo-hexyl)quinazolin-4-amine]
Cc1cc(Nc2nc(N[C@H]3CC[C@H](N4CCOCC4)CC3)c3cc(C#N)ccc3n2)sn1 [Compound I-61, 2-((3-methylisothiazol-5-yl)amino)-4-(((1r,4r)-4-morpholino-cyclohexyl)amino)quinazoline-6-carbonitrile]
